For this experiment, the system named is L1210 leukemia ip in BDF1 mice, survival T/C. Kind of experiment: NCI In Vivo Anticancer Drug Screen. Data for tumor model L1210 Leukemia (intraperitoneal) in B6D2F1 (BDF1) mice. The settings on record: endpoint: mean survival time, higher = longer survival. Summed up: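 Mice bearing the transplanted tumor received compound or vehicle. Survival of the treated group was divided by that of the vehicle-treated control group to give the ratio.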

[1] abbreviates: dose: 100.0 mg/kg/injection, schedule: Q04DX002 (ip), vehicle: saline with Tween-80.
Where [2] appears, read: dose: 200.0 mg/kg/injection, schedule: Q04DX002 (ip), vehicle: saline with Tween-80.
Setting [3] is: dose: 400.0 mg/kg/injection, schedule: Q04DX002 (ip), vehicle: saline with Tween-80.
Where [4] appears, read: dose: 100.0 mg/kg/injection, schedule: Q01DX001 (ip), vehicle: Klucel (hydroxypropylcellulose) (HPC).
Where [5] appears, read: dose: 200.0 mg/kg/injection, schedule: Q01DX001 (ip), vehicle: Klucel (hydroxypropylcellulose) (HPC).
Where [6] appears, read: dose: 400.0 mg/kg/injection, schedule: Q01DX001 (ip), vehicle: Klucel (hydroxypropylcellulose) (HPC).
[7] abbreviates: dose: 100.0 mg/kg/injection, schedule: Q01DX001 (ip), vehicle: saline.
[8] abbreviates: dose: 100.0 mg/kg/injection, schedule: Q01DX009 (ip), vehicle: saline.
Setting [9] is: dose: 100.0 mg/kg/injection, schedule: Q04DX003 (ip), vehicle: saline.
[10] abbreviates: dose: 200.0 mg/kg/injection, schedule: Q01DX001 (ip), vehicle: saline.
The mark [11] stands for this setting: dose: 200.0 mg/kg/injection, schedule: Q01DX009 (ip), vehicle: saline.
[12] abbreviates: dose: 200.0 mg/kg/injection, schedule: Q04DX003 (ip), vehicle: saline.
Setting [13] is: dose: 400.0 mg/kg/injection, schedule: Q01DX001 (ip), vehicle: saline.
The mark [14] stands for this setting: dose: 400.0 mg/kg/injection, schedule: Q01DX009 (ip), vehicle: saline.
Setting [15] is: dose: 400.0 mg/kg/injection, schedule: Q04DX003 (ip), vehicle: saline.
[16] abbreviates: dose: 100.0 mg/kg/injection, schedule: Q04DX003 (ip), vehicle: Klucel (hydroxypropylcellulose) (HPC).
The mark [17] stands for this setting: dose: 400.0 mg/kg/injection, schedule: Q04DX003 (ip), vehicle: Klucel (hydroxypropylcellulose) (HPC).
Setting [18] is: dose: 50.0 mg/kg/injection, schedule: Q01DX009 (ip), vehicle: Klucel (hydroxypropylcellulose) (HPC).
Setting [19] is: dose: 100.0 mg/kg/injection, schedule: Q01DX009 (ip), vehicle: Klucel (hydroxypropylcellulose) (HPC).
[20] abbreviates: dose: 200.0 mg/kg/injection, schedule: Q04DX003 (ip), vehicle: Klucel (hydroxypropylcellulose) (HPC).
Where [21] appears, read: dose: 100.0 mg/kg/injection, schedule: Q04DX003 (ip), vehicle: saline with Tween-80.
[22] abbreviates: dose: 200.0 mg/kg/injection, schedule: Q04DX003 (ip), vehicle: saline with Tween-80.
Where [23] appears, read: dose: 200.0 mg/kg/injection, schedule: Q01DX009 (ip), vehicle: Klucel (hydroxypropylcellulose) (HPC).
Where [24] appears, read: dose: 400.0 mg/kg/injection, schedule: Q01DX009 (ip), vehicle: Klucel (hydroxypropylcellulose) (HPC).
Where [25] appears, read: dose: 12.5 mg/kg/injection, schedule: Q01DX009 (ip), vehicle: Klucel (hydroxypropylcellulose) (HPC).
[26] abbreviates: dose: 25.0 mg/kg/injection, schedule: Q01DX009 (ip), vehicle: Klucel (hydroxypropylcellulose) (HPC).

For 23 compounds, T/C results are on record in PubChem BioAssay AID248 (DTP/NCI, 2004).

Each structure is given as a SMILES string. Where “and” joins values, the source holds several entries; their conditions need not be identical. Identical values can stand only once. Inconclusive results and toxic doses are left out.

On to `c1ccn2nnc(-c3nnn4ccccc34)c2c1`, for which the T/C is, setting by setting: under setting [1], 102 % of control; under setting [2], 95 % of control; under setting [3], 91 % of control.

Consider `COc1ccc2nc(NC(=O)NCCCl)sc2c1`, for which the T/C under setting [4] is 90 % of control, the T/C under setting [5] was 95 % of control and the T/C under setting [6] is 91 % of control.

Consider `Cc1scc[n+]1C`, for which the T/C runs as follows: (dose: 75.0 mg/kg/injection, schedule: Q01DX001 (ip), vehicle: saline) 104 % of control; (dose: 150.0 mg/kg/injection, schedule: Q01DX001 (ip), vehicle: saline) 102 % of control; (dose: 300.0 mg/kg/injection, schedule: Q01DX001 (ip), vehicle: saline) 107 % of control.

On to `Cc1c(Cl)c(C)c(Cl)c(Cl)c1Cl`, for which the T/C was 106 % of control under setting [7]; 101 % of control under setting [8]; 89 % of control under setting [9]; 98 % of control under setting [10]; 108 % of control under setting [11]; 87 % of control under setting [12]. The T/C is 96 % of control under setting [13], 94 % of control under setting [14] and 94 % of control under setting [15].

Turning to `NC(=O)N1Cc2ccccc2CCc2ccccc2C1`, the T/C by setting is: under setting [16], 98 % of control; under setting [17], 91 % of control.

As to `O=C1NC(c2cccc3ccccc23)Nc2cc(Cl)ccc21` (stereo unspecified), the T/C reads like this: under setting [18], 109 % of control; under setting [19], 112 % of control; (dose: 150.0 mg/kg/injection, schedule: Q01DX009 (ip), vehicle: Klucel (hydroxypropylcellulose) (HPC)) 118 % of control.

In the case of `CCOc1ccc(CCC(=O)O)cc1`, the T/C was 100 % of control under setting [16], 105 % of control under setting [20] and 94 % of control under setting [17].

As for `COC(=O)C1=C(C(=O)OC)C2(O)c3ccccc3C1c1ccccc12`, the T/C was 100 % of control under setting [8], 93 % of control under setting [11] and 88 % of control under setting [14].

Consider `CC(=O)OCC1OC(NC(=O)N(CCCl)N=O)C(OC(C)=O)C(OC(C)=O)C1OC(C)=O` (stereo unspecified), for which the T/C was 246 % of control (dose: 6.0 mg/kg/injection, schedule: Q01DX001 (ip), vehicle: saline with Tween-80); 342 % of control (dose: 9.0 mg/kg/injection, schedule: Q01DX001 (ip), vehicle: saline with Tween-80); 428 % of control (dose: 13.0 mg/kg/injection, schedule: Q01DX001 (ip), vehicle: saline with Tween-80); 393 % of control (dose: 20.0 mg/kg/injection, schedule: Q01DX001 (ip), vehicle: saline with Tween-80); 324 % of control (dose: 30.0 mg/kg/injection, schedule: Q01DX001 (ip), vehicle: saline with Tween-80).

As to `C=CCOc1ccccc1C(C)=O`, the T/C is, setting by setting: under setting [21], 97 % of control; under setting [22], 97 % of control; (dose: 400.0 mg/kg/injection, schedule: Q04DX003 (ip), vehicle: saline with Tween-80) 89 % of control.

`CC(=O)C(=Cc1ccccc1)C(C)=O`: the T/C is 97 % of control under setting [18]; 87 % of control and 90 % of control under setting [19]; 92 % of control under setting [16]; 106 % of control under setting [9]; 95 % of control under setting [23]; 97 % of control under setting [20]. The T/C is 116 % of control under setting [12], 91 % of control under setting [24], 97 % of control under setting [17] and 106 % of control under setting [15].

`CSc1ccc(NC(=O)c2ccc(Cl)cc2)cc1`: the T/C was 100 % of control under setting [1], 100 % of control under setting [2] and 92 % of control under setting [3].

As for `CS(=O)(=O)Nc1ccc(Nc2c3ccccc3nc3cc(N)ccc23)cc1`, the T/C by setting is: (dose: 0.4 mg/kg/injection, schedule: Q01DX009 (ip), vehicle: saline) 152 % of control; (dose: 1.25 mg/kg/injection, schedule: Q01DX009 (ip), vehicle: saline) 100 % of control; (dose: 4.0 mg/kg/injection, schedule: Q01DX009 (sc), vehicle: saline) 123 % of control; (dose: 5.0 mg/kg/injection, schedule: Q01DX009 (ip), vehicle: saline) 88 % of control; (dose: 20.0 mg/kg/injection, schedule: Q01DX001 (ip), vehicle: saline) 92 % of control; (dose: 40.0 mg/kg/injection, schedule: Q01DX001 (ip), vehicle: saline) 89 % of control.

In the case of `O=C(c1ccc([N+](=O)[O-])cc1)C1NC1c1ccc([N+](=O)[O-])cc1` (stereo unspecified), the T/C (dose: 50.0 mg/kg/injection, schedule: Q01DX001 (ip), vehicle: carboxymethylcellulose (CMC)) is 108 % of control; the T/C (dose: 100.0 mg/kg/injection, schedule: Q01DX001 (ip), vehicle: carboxymethylcellulose (CMC)) is 100 % of control; the T/C (dose: 200.0 mg/kg/injection, schedule: Q01DX001 (ip), vehicle: carboxymethylcellulose (CMC)) is 105 % of control; the T/C (dose: 400.0 mg/kg/injection, schedule: Q01DX001 (ip), vehicle: carboxymethylcellulose (CMC)) was 97 % of control.

Regarding `CC(C)c1ccc(N2C(=O)C=CC2=O)cc1`, the T/C runs as follows: under setting [25], 100 % of control; under setting [26], 91 % of control.

Regarding `O=C(CN1C2CCC1CC(O)C2)NCC1C(c2ccccc2)C1c1ccccc1` (stereo unspecified), the T/C was 111 % of control (dose: 25.0 mg/kg/injection, schedule: Q04DX002 (ip), vehicle: Klucel (hydroxypropylcellulose) (HPC)); 95 % of control (dose: 50.0 mg/kg/injection, schedule: Q04DX002 (ip), vehicle: Klucel (hydroxypropylcellulose) (HPC)); 109 % of control (dose: 100.0 mg/kg/injection, schedule: Q04DX002 (ip), vehicle: Klucel (hydroxypropylcellulose) (HPC)).

`COC(=O)c1ccc(/C=C/c2ccc(S(=O)(=O)F)cc2)cc1`: the T/C was 91 % of control under setting [4], 91 % of control under setting [5] and 97 % of control under setting [6].

For the compound `C=CCNC(=S)Nc1cccc(Cl)c1C`, the T/C reads like this: under setting [25], 87 % of control; under setting [26], 101 % of control; under setting [18], 96 % of control; under setting [16], 90 % of control; under setting [20], 100 % of control; under setting [17], 94 % of control.

`COC(=O)/C(C#N)=C\c1ccccc1`: the T/C was 95 % of control under setting [21] and 101 % of control under setting [22].

As to `CC12CCC(C(N)C1=O)C2(C)C` (stereo unspecified), the T/C is 103 % of control under setting [8]; 98 % of control under setting [9]; 105 % of control under setting [11]; 98 % of control under setting [12]; 94 % of control under setting [14]; 97 % of control under setting [15].

With `O=C(N=P(c1ccccc1)(c1ccccc1)c1ccccc1)c1ccccc1`, the T/C is 94 % of control under setting [7], 100 % of control under setting [10] and 96 % of control under setting [13].

In the case of `COC(=O)c1cc(NC(=O)Nc2cccc(C(C)=O)c2)cc(C(=O)OC)c1`, the T/C is 98 % of control under setting [19], 102 % of control under setting [23] and 93 % of control under setting [24].

Regarding `CC(C)(C=O)C(=O)Nc1ccccc1`, the T/C is 103 % of control (dose: 100.0 mg/kg/injection, schedule: Q04DX002 (ip), vehicle: saline); 106 % of control (dose: 200.0 mg/kg/injection, schedule: Q04DX002 (ip), vehicle: saline); 103 % of control (dose: 400.0 mg/kg/injection, schedule: Q04DX002 (ip), vehicle: saline).
